Experiment [1] deals with NGF-induced vascular hyper permeability. The experiment in a line: Inhibition of rat NGF-induced vascular hyper permeability. In kind it is in vivo. The settings on record: po, 1 mg/kg orally, read-out: Inhibition rate of vascular hyper permeability (%) (time after administration (h)). The method, then:
TrkA-inhibiting activity of the present compound was evaluted in vivo. The present compound dissolved in a medium was orally administered (adminstered volume: 5 mL/kg) to male CD(SD)IGS rats (7- to 9-week old, Charles River laboratories Japan, Inc.) shaved on the back. A medium was orally administered (adminstered volume: 5 mL/kg) to the control and normal groups. After 6, 12 or 14 hours of administration, 3 μg/mL of a NGF (Mouse 2.5s, Natural, Invitrogen) solution prepared in 0.1% BSA (Sigma-Aldrich)-containing saline was intracutaneously administered (dose; 50 μL/site) at 3 sites on the back of animals under halothane anesthesia. For the normal group, 0.1% BSA-containing saline was intracutaneously administered (dose; […]) at 3 sites on the back. Immediately after intracutaneous administration, 1% Evans Blue (Tokyo Chemical Industriy Co., Ltd.) was administered intravenously from tail (adminstered volume: 3 mL/kg). After 10 minutes of administration, the animals were sacrificed by bleeding due to incision of the abdominal aorta. The sites of intracutaneous administration on the back (3 sites) were excised and the skin samples were respectively transferred to the wells in a 48-well plate (Asahi Glass Co., Ltd.). Formamide (0.8 mL/well) was added to the plate and the plate was sealed and incubated overnight at 60° C. The formamide extraction solution (200 μL) was transferred to a 96-well plate and the absorbance (wavelength: 620 nm) of Evans Blue extracted in formamide was measured on an absorbance microplate reader (SpectraMAX 190, Molecular Devices Japan, K.K.). Standard samples of Evans Blue dissolved in formamide (0, 0.78, 1.56, 3.13, 6.25, 12.5, 25 and 50 µg/mL) were measured at the same time for the absorance (wavelength: 620 nm) to generate a calibration curve. Based on the calibration curve and the absorbances of samples, the concentrations of Evans Blue in the sample was calculated. The concentrations of Evans Blue for three skin samples collected from one aminal were averaged to obtain the vale for the animal. The rate of inhibition for rat NGF-induced vascular hyper permeability of the present compound was calculated according to the following Equation: Inhibition rate (%)={1−(AX−AN)/(AC−AN)}×100 [Eq. 3]
wherein AX: the concentration of Evans Blue of the test compound (an average value of 3 samples from one animal);
AN: the concentration of Evans Blue of the normal group (an average value of 3 samples from one animal);
AC: the concentration of Evans Blue of the control group (an average value of 3 samples from one animal).

Another experiment deals with human TrkA (Homo sapiens (Human), UniProt P04629). The experiment in a line: Measurement of TrkA kinase-inhibiting activity using human TrkA-expressing cells. The note with it: CHO-K1 cells expressing human TrkA and NFAT-bla; NGF 50 ng/ml; TR-FRET reporter. In kind it is cell-based. The method, then:
TrkA kinase-inhibiting activity in cell systems was measured using CHO-K1 cells exressing human TrkA and NFAT-bla (CellSenser™ TrkA-NFAT-bla CHO-K1 cells, Invitrogen).
On the day before the assay, CellSenser™ TrkA-NFAT-bla CHO-K1 cells were suspended in an assay medium (Opti-MEM1 Reduced Serum Medium (Invitrogen) containing 0.5% dialysed fetal bovine serum (Invitrogen), 0.1 mM nonessential amino acids (Invitrogen), 1 mM sodium pyruvate (Invitrogen) and antibiotics (100 U/mL penicillin and 100 µg/mL streptomycin (Invitrogen))) and plated at a density of 2.4×10^4 cells/40 μL/well in a 96-well clear bottom plate (Corning, Catalogue No.: 3882). In some wells were added only the assay medium at 40 μL/well (Cell-free). On the day of the assay, 10 mM of the present compound (DMSO solution) was distributed in a 96-well plate (Costar, Catalogue No.: 3363) and serially diluted with DMSO with the geometrical ratio of 3. The serial dilutions were diluted with the assay medium to 100-fold to prepare a solution of the present compound with a 10-fold concentration (DMSO concentration: 1%). To the plate where cells were plated was added the present compound at 5 µL/well and the plate was incubated in a CO2 incubator with 5% CO2, 95% Air at 37° C. for 30 minutes. For a control and a blank, the assay medium containing 1% DMSO was added at 5 µL/well in place of the solution of the present compound. Subsequently the assay medium containing NGF (Mouse 2.5s, Natural, Invitrogen) was added to the plate at 5 µL/well (final concentration of NGF: 50 ng/ml) and the plate was incubated in a CO2 incubator with 5% CO2, 95% Air at 37° C. for 5 hours. For the blank group, the assay medium was added in place of NGF at 5 µL/well. A reporter assay detection reagent ([…]) was added to the plate which was then incubated in the dark at room temperature for 120 minutes. The reporter assay detection reagent was prepared from LiveBLAzer™-FRET B/G Loading Kit (Invitrogen). On the Analyst GT (Molecular Devices Japan, K.K.) the wells were irradiated with excitation light at 405 nm and the fluorescence intensities at 460 nm and 530 nm were measured. The time resolved fluorescence resonance energy transfer (TR-FRET) ratio of each well was calculated according to the following Equation 1: TR-FRET ratio=(A460x−A460F)/(A530x−A530F) [Eq. 1]
A460x: the fluorescence intensity at 460 nm of the present compound, control or blank;
A460F: the fluorescence intensity at 460 nm of the Cell-free;
A530x: the fluorescence intensity at 530 nm of the present compound, control or blank; and
A530x: the fluorescence intensity at 530 nm of the Cell-free.
The TR-FRET inhibition rate (%) of the present compound was calculated according to the following Equation 2: Inhibition rate (%)={1−(AX−AB)/(AC−AB)}×100 [Eq. 2]
wherein AX: the TR-FRET ratio when the present compound is added;
AB: the TR-FRET of the blank; and
AC: the TR-FRET of the control.
The IC50 value by the present compound was calculated from the inhibition curve based on the inhibition rate of the present compound at respective concentrations.

Where two headings read alike, the source gives them in different places.

Chain of human TrkA (P04629 33-796): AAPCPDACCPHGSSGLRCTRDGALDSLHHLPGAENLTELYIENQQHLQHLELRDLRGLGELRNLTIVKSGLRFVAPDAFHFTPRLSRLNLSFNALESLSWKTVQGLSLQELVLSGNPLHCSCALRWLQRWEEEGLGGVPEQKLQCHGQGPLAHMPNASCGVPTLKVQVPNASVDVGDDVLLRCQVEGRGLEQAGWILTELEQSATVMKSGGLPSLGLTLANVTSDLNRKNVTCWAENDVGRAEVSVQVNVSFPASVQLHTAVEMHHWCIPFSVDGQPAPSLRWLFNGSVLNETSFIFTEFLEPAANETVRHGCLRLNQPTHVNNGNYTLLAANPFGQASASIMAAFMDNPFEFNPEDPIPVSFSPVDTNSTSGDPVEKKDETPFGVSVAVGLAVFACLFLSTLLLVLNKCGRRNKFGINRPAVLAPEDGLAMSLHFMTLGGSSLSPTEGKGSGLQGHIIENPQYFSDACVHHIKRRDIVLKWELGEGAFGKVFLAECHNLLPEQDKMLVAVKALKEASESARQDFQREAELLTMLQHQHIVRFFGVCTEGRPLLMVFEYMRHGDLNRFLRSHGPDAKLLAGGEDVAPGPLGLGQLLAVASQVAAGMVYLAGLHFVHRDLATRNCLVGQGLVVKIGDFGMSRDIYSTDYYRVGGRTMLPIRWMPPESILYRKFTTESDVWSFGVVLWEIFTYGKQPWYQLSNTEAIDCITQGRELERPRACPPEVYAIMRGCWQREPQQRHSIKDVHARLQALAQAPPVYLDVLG

For `Cn1nccc1-c1ccc(C(F)(F)F)cc1NC(=O)Nc1cnc(Oc2ccc(-c3cc(Cl)cnc3N)cc2)nc1` [Example 13-1, 1-(2-(4-(2-amino-5-chloropyridin-3-yl)phenoxy)pyrimidin-5-yl)-3-(2-(1-methyl-1H-pyrazol-5-yl)-5-(trifluoromethyl)phenyl)urea], in experiment [1] (14 h after administration), the inhibition in vivo at 1 mg/kg turned out to be 100%. On human TrkA, this compound showed a concentration for half-maximal inhibition (IC50) of 0.002 µM.
Regarding `Nc1ncc(F)cc1-c1ccc(Oc2ncc(NC(=O)Nc3cc(C(F)(F)F)ccc3-n3ccnn3)cn2)cc1` [Example 14-5, 1-(2-(1H-1,2,3-triazol-1-yl)-5-(trifluoromethyl)phenyl)-3-(2-(4-(2-amino-5-fluoropyridin-3-yl)phenoxy)pyrimidin-5-yl)urea], the inhibition in vivo at 1 mg/kg in experiment [1] (14 h after administration) is 93%. On human TrkA, this compound gave an IC50 of 0.001 µM.
In the case of `Nc1ncc(F)cc1-c1ccc(Oc2ncc(NC(=O)Nc3cc(C(F)(F)F)ccc3-c3cccnc3)cn2)cc1` [Example 14-6, 1-(2-(4-(2-amino-5-fluoropyridin-3-yl)phenoxy)pyrimidin-5-yl)-3-(2-(pyridin-3-yl)-5-(trifluoromethyl)phenyl)urea], the inhibition in vivo at 1 mg/kg in experiment [1] (12 h after administration) was 78%. For the same compound, the IC50 on human TrkA worked out at 0.001 µM.
Consider `Nc1ncc(Cl)cc1-c1ccc(Oc2ncc(NC(=O)Nc3ccc(C(F)(F)F)cc3-n3cccn3)cn2)cc1` [Example 15-4, 1-(2-(1H-pyrazol-1-yl)-4-(trifluoromethyl)phenyl)-3-(2-(4-(2-amino-5-chloropyridin-3-yl)phenoxy)pyrimidin-5-yl)urea], for which the inhibition in vivo at 1 mg/kg in experiment [1] (14 h after administration) is 100%. Besides, half-maximal inhibition on human TrkA (IC50) was put at 0.001 µM.
For the compound `Nc1ncc(Cl)cc1-c1ccc(Oc2ncc(NC(=O)Nc3ccc(C(F)(F)F)cc3F)cn2)cc1` [Example 15-5, 1-(2-(4-(2-amino-5-chloropyridin-3-yl)phenoxy)pyrimidin-5-yl)-3-(2-fluoro-4-(trifluoromethyl)phenyl)urea], the inhibition in vivo at 1 mg/kg in experiment [1] (14 h after administration) stood at 92%. Besides, the midpoint of inhibition on human TrkA, the IC50, lay at 0.003 µM.
In the case of `Nc1ncc(Cl)cc1-c1ccc(Oc2ncc(NC(=O)Nc3ccc(C(F)(F)F)cc3Cl)cn2)cc1` [Example 15-6, 1-(2-(4-(2-amino-5-chloropyridin-3-yl)phenoxy)pyrimidin-5-yl)-3-(2-chloro-4-(trifluoromethyl)phenyl)urea], the inhibition in vivo at 1 mg/kg in experiment [1] (14 h after administration) was 95%. On human TrkA, this compound registered an IC50 of 0.002 µM.
Turning to `Nc1ncc(C(F)(F)F)cc1-c1ccc(Oc2ncc(NC(=O)Nc3cc(C(F)(F)F)ccc3-n3ccc(C(F)(F)F)n3)cn2)cc1` [Example 15-52, 1-(2-{4-[2-amino-5-(trifluoromethyl)-3-pyridinyl]phenoxy}-5-pyrimidinyl)-3-{5-(trifluoromethyl)-2-[3-(trifluoromethyl)-1H-pyrazol-1-yl]phenyl}urea], the inhibition in vivo at 1 mg/kg in experiment [1] (14 h after administration) turned out to be 96%. Moreover, the IC50 against human TrkA is 0.004 µM.
Take `Nc1ncc(Cl)cc1-c1ccc(Oc2ncc(NC(=O)Nc3cc(C(F)(F)F)ccc3-c3ccccc3)cn2)cc1` [Example 15-55, 1-{2-[4-(2-amino-5-chloro-3-pyridinyl)phenoxy]-5-pyrimidinyl}-3-[4-(trifluoromethyl)-2-biphenylyl]urea]: in experiment [1] (14 h after administration), the inhibition in vivo at 1 mg/kg stood at 94%. The same compound had an IC50 at human TrkA of 0.004 µM.
Consider `Nc1ncc(F)cc1-c1ccc(Oc2ncc(NC(=O)Nc3cc(C(F)(F)F)ccc3-c3ccccc3)cn2)cc1` [Example 15-58, 1-{2-[4-(2-amino-5-fluoro-3-pyridinyl)phenoxy]-5-pyrimidinyl}-3-[4-(trifluoromethyl)-2-biphenylyl]urea], for which the inhibition in vivo at 1 mg/kg in experiment [1] (14 h after administration) came to 100%. On human TrkA, this compound displayed an IC50 of 0.002 µM.
Consider `Nc1ncc(Cl)cc1-c1ccc(Oc2ncc(NC(=O)Nc3cc(C(F)(F)F)ccc3-n3cc(Cl)cn3)cn2)cc1` [Example 15-63, 1-{2-[4-(2-amino-5-chloro-3-pyridinyl)phenoxy]-5-pyrimidinyl}-3-[2-(4-chloro-1H-pyrazol-1-yl)-5-(trifluoromethyl)phenyl]urea], for which the inhibition in vivo at 1 mg/kg in experiment [1] (14 h after administration) was 99%. Also, the half-maximal inhibitory concentration (IC50) against human TrkA worked out at 0.002 µM.
On to `Nc1ncc(Cl)cc1-c1ccc(Oc2ncc(NC(=O)Nc3cc(Cl)ccc3-n3ccc(C(F)(F)F)n3)cn2)cc1` [Example 15-71, 1-{2-[4-(2-amino-5-chloro-3-pyridinyl)phenoxy]-5-pyrimidinyl}-3-{5-chloro-2-[3-(trifluoromethyl)-1H-pyrazol-1-yl]phenyl}urea], for which the inhibition in vivo at 1 mg/kg in experiment [1] (14 h after administration) stood at 100%. The same compound yielded an IC50 on human TrkA of 0.002 µM.
On to `Nc1ncc(Cl)cc1-c1ccc(Oc2ncc(NC(=O)Nc3ccc(C(F)(F)F)cc3C(F)(F)F)cn2)cc1` [Example 15-77, 1-{2-[4-(2-amino-5-chloro-3-pyridinyl)phenoxy]-5-pyrimidinyl}-3-[2,4-bis(trifluoromethyl)phenyl]urea], for which the inhibition in vivo at 1 mg/kg in experiment [1] (14 h after administration) was 100%. On human TrkA, this compound returned an IC50 of 0.002 µM.
The like results for `Nc1ncc(C(F)(F)F)cc1-c1ccc(Oc2ncc(NC(=O)Nc3cc(C(F)(F)F)ccc3-n3cc(Cl)cn3)cn2)cc1` [Example 15-87, 1-(2-{4-[2-amino-5-(trifluoromethyl)-3-pyridinyl]phenoxy}-5-pyrimidinyl)-3-[2-(4-chloro-1H-pyrazol-1-yl)-5-(trifluoromethyl)phenyl]urea] were, in that order, 86% and 0.001 µM.
Turning to `CS(=O)(=O)c1ccc(C(F)(F)F)cc1NC(=O)Nc1cnc(Oc2ccc(-c3cc(F)cnc3N)cc2)nc1` [Example 15-96, 1-{2-[4-(2-amino-5-fluoro-3-pyridinyl)phenoxy]-5-pyrimidinyl}-3-[2-(methylsulfonyl)-5-(trifluoromethyl)phenyl]urea], the inhibition in vivo at 1 mg/kg in experiment [1] (14 h after administration) was found to be 90%. This compound gave an IC50 at human TrkA of 0.0004 µM.
As to `CS(=O)(=O)c1ccc(C(F)(F)F)cc1NC(=O)Nc1cnc(Oc2ccc(-c3cc(C(F)(F)F)cnc3N)cc2)nc1` [Example 15-98, 1-(2-{4-[2-amino-5-(trifluoromethyl)-3-pyridinyl]phenoxy}-5-pyrimidinyl)-3-[2-(methylsulfonyl)-5-(trifluoromethyl)phenyl]urea], in experiment [1] (14 h after administration), the inhibition in vivo at 1 mg/kg was 80%. The compound further came in with an IC50 on human TrkA of 0.0008 µM.

For the origin of these results see US9463192B2, “Trk-inhibiting compound” (ONO PHARMACEUTICAL CO., LTD., priority 2013, dated 2016).
